Converted amounts (≈) assume the structure as drawn. Read-outs that look alike come from different tables or passages of the source. Ends that are not written are not given here. Peptide text beside a SMILES is read from it.
Experiments:
[1] = tested on: A. Baumannii AB5075; assay type: cell-based, Acinetobacter baumannii
Excerpt: (§1) To evaluate the susceptibility of the different peptide sequences against clinical isolates of various bacterial pathogens, we used the minimum inhibitory concentration (MIC) assay. The MIC measures the efficacy of peptides in inhibiting bacterial growth. The specific MIC values of various peptides against Enterococcus […] ATCC19433, Staphylococcus aureus ATCC25923, Klebsiella pneumoniae ATCC43816, Acinetobacter baumannii AB5075, Pseudomonas aeruginosa PAO1, and Enterobacter species ATCC13048 were determined by measuring optical density at 600 nm (OD600 nm). […] The growth inhibition curves were used to estimate the MIC values.
(§2) Bacteria: The MIC was the lowest concentration of a drug, which inhibited the visible growth of a bacteria and could be determined by reading the absorption at 600 nm (OD600 nm) using a spectrophotometer. The peptides were subjected to antibacterial testing against gram‐positive and gram‐negative pathogens. All the ESKAPE pathogens (E. faecalis ATCC19433, S. aureus ATCC25923, K. pneumoniae ATCC43816, A. baumannii AB5075, P. aeruginosa PAO1, and E. aerogenes ATCC13048) were inoculated from nutrient agar plates to obtain a bacterial suspension by incubating the colony of bacteria in a flask containing 10 mL of Mueller Hinton broth II (MHB) at 37 °C for 24 h with gentle shaking (75 rpm). The bacterial suspensions were then diluted in MHB to 1 × 10^6 colony‐forming units (CFU) of bacteria mL^−1. Next, using serial dilutions in 96‐well plates, different concentrations of each peptide from 1.5–400 μM were prepared. 100 μL of peptide solutions at final concentration ranging between 0.75–200 μM were then added to a 96‐well plate containing 100 μL of diluted bacterial suspension. After 18–24 h incubation at 37 °C, the turbidity of the samples was observed, and the optical density of bacteria was measured using OD600 nm. All assays were performed in duplicates. The MICs were calculated as ≥90% inhibition of bacteria growth compared to the positive control wells.

[2] = tested on: E. Faecalis ATCC19433; assay type: cell-based, Enterococcus faecalis
Excerpt: as §1, §2

[3] = tested on: S. Aureus ATCC25923; assay type: cell-based, Staphylococcus aureus
Excerpt: as §1, §2

[4] = tested on: K. Pneumoniae ATCC43816; assay type: cell-based, Klebsiella pneumoniae
Excerpt: as §1, §2

[5] = tested on: P. Aeruginosa PAO1; assay type: cell-based, Pseudomonas aeruginosa
Excerpt: as §1, §2

[6] = tested on: E. Aerogenes ATCC13048; assay type: cell-based, Enterobacter aerogenes
Excerpt: as §1, §2

[7] = tested on: ESKAPE pathogens; assay: MIC assay, bacteria, strain of the six not assignable or not specified; assay type: cell-based; conditions: one of the six ESKAPE strains, left to right order; MHB II, 18–24 h, 37 °C, OD600 nm, ≥90% inhibition, duplicates
Excerpt: as §1, §2

[8] = broth microdilution, Mueller Hinton broth II, peptide 0.75–200 μM, 18–24 h at 37 °C, OD600 nm, MIC = ≥90% inhibition, duplicates

| Compound | MIC A. Baumannii AB5075 ([1]; AB5075) [µM] | MIC E. Faecalis ATCC19433 ([2]; ATCC19433) [µM] | MIC S. Aureus ATCC25923 ([3]; ATCC25923) [µM] | MIC K. Pneumoniae ATCC43816 ([4]; ATCC43816) [µM] | MIC P. Aeruginosa PAO1 ([5]; PAO1) [µM] | MIC E. Aerogenes ATCC13048 ([6]; ATCC13048) [µM] | further results |
| --- | --- | --- | --- | --- | --- | --- | --- |
| CC[C@H](C)[C@H](NC(=O)[C@H](CCC(N)=O)NC(=O)[C@@H]1CCCN1C(=O)[C@H](Cc1ccccc1)NC(=O)[C@H](CCCCN)NC(=O)[C@H](CCCCN)NC(=O)CNC(=O)[C@H](Cc1ccccc1)NC(=O)[C@@H](N)Cc1c[nH]c2ccccc12)C(=O)N[C@@H](C)C(=O)N[C@@H](CS)C(=O)N[C@@H](CCCCN)C(=O)N[C@@H](CCCNC(=N)N)C(=O)N[C@@H](CS)C(=O)N[C@@H](CS)C(N)=O [MLWH 43] (H-WFGKKFPQIACKRCC-NH2) | 25 (≈ 45.4 µg/mL) |  |  |  |  |  |  |
| AIVKKGWIKILAWVF-NH2 [MLWH 36] |  | 100 | 6 | 100 | 200 | 100 |  |
| ALFLGGIWKKLPKAI-NH2 [MLWH02] | 100 |  |  |  | 100 |  |  |
| ALKAKLKFPGKFLFK-NH2 [MLWH 25] | 100 |  |  | 100 | 200 | 200 |  |
| AVLIAKLFHKLNKIK-NH2 [MLWH 15] | 100 | 200 |  | 200 | 200 |  |  |
| AWLKFKKKFGLFAKI-NH2 [MLWH11] | 12.5 | 25 | 100 | 12.5 | 25 | 12.5 |  |
| FLPLIILKFIGKLLP-NH2 [MLWH 19] | 200 | 1.5 | 3 |  |  |  |  |
| FNKGKKFFFKFIKWV [MLWH73, peptide generated using algorithm, list 2] |  |  |  |  |  |  | MIC E. Faecalis ATCC19433 [2, 8]: 25 µM; MIC S. Aureus ATCC25923 [3, 8]: 25 µM; MIC K. Pneumoniae ATCC43816 [4, 8]: 12.5 µM; MIC A. Baumannii AB5075 [1, 8]: 12.5 µM; MIC P. Aeruginosa PAO1 [5, 8]: 25 µM; MIC E. Aerogenes ATCC13048 [6, 8]: 25 µM |
| FVTITLKNFAKKKVG-NH2 [MLWH 28] | 200 |  |  | 200 |  | 200 |  |
| GGAFFKLTQKIIKKA-NH2 [MLWH07] | 50 |  |  | 200 | 200 |  |  |
| GIKIIGIKVATFLKA-NH2 [MLWH03] |  |  |  | 200 |  |  |  |
| GKIFGKLFLALIKMW-NH2 [MLWH06] | 25 | 12.5 | 25 |  | 200 | 200 |  |
| GLLTTGKKKLLGIIA-NH2 [MLWH 26] | 200 |  |  |  |  |  |  |
| GLWKIKLAFGKMFAK-NH2 [MLWH05] | 12.5 | 25 | 100 | 25 | 25 | 25 |  |
| GPLMGAFIKKLLPKF-NH2 [MLWH 48] | 25 | 200 |  | 100 | 100 | 200 |  |
| IKVILKLVTNKGNGI-NH2 [MLWH 21] | 50 | 200 |  | 200 |  | 200 |  |
| KFITKFVKGLGLGTL-NH2 [MLWH 23] | 50 |  |  | 200 | 200 |  |  |

| Compound | MIC A. Baumannii AB5075 ([1]; AB5075) [µM] | MIC E. Faecalis ATCC19433 ([2]; ATCC19433) [µM] | MIC S. Aureus ATCC25923 ([3]; ATCC25923) [µM] | MIC K. Pneumoniae ATCC43816 ([4]; ATCC43816) [µM] | MIC P. Aeruginosa PAO1 ([5]; PAO1) [µM] | MIC E. Aerogenes ATCC13048 ([6]; ATCC13048) [µM] | further results |
| --- | --- | --- | --- | --- | --- | --- | --- |
| KGFAKMFRLLKKLAR-NH2 [MLWH 32] | 3 | 12.5 | 6 | 12.5 | 25 | 25 |  |
| KHVFAFLGGKLVKLK-NH2 [MLWH 35] | 50 |  |  | 200 |  |  |  |
| KLKGLIFAWFKGIIA-NH2 [MLWH 45] | 25 | 25 | 100 | 100 | 200 | 25 |  |
| LGVKPVFKFFKFFGK [MLWH51, peptide generated using algorithm, list 2] |  |  |  |  |  |  | MIC E. Faecalis ATCC19433 [2, 8]: 100 µM; MIC S. Aureus ATCC25923 [3, 8]: 200 µM; MIC K. Pneumoniae ATCC43816 [4, 8]: 100 µM; MIC A. Baumannii AB5075 [1, 8]: 12.5 µM; MIC P. Aeruginosa PAO1 [5, 8]: 50 µM; MIC E. Aerogenes ATCC13048 [6, 8]: 200 µM |
| LLGFTAFIKGQIKTA-NH2 [MLWH09] | 200 | 50 | 50 | 100 | 200 | 100 |  |
| NFKIIKKVGIKLKGA-NH2 [MLWH 33] | 100 |  |  |  |  |  |  |
| PKWHKNKMFKFKRKF [MLWH98, peptide generated using algorithm, list 2] |  |  |  |  |  |  | MIC, Table S7, 4th value printed in the line (strain column cannot be told) [7]: 200 µM |
| PSKYAKIAIKFHKQI [MLWH61, peptide generated using algorithm, list 2] |  |  |  |  |  |  | MIC, Table S7, 4th value printed in the line (strain column cannot be told) [7]: 50 µM |
| QGWIKIILPHIRYIK [MLWH57, peptide generated using algorithm, list 2] |  |  |  |  |  |  | MIC, Table S7, 4th value printed in the line (strain column cannot be told) [7]: 25 µM |
| RMFFKFKKKFKKWGQ [MLWH74, peptide generated using algorithm, list 2] |  |  |  |  |  |  | MIC E. Faecalis ATCC19433 [2, 8]: 200 µM; MIC S. Aureus ATCC25923 [3, 8]: 50 µM; MIC K. Pneumoniae ATCC43816 [4, 8]: 25 µM; MIC A. Baumannii AB5075 [1, 8]: 25 µM; MIC P. Aeruginosa PAO1 [5, 8]: 200 µM; MIC E. Aerogenes ATCC13048 [6, 8]: 100 µM |
| TKFGQKVIKLIAQFL-NH2 [MLWH 24] | 3 | 6 | 12.5 | 6 | 25 | 6 |  |
| TLVKAVAHIAKLLKF-NH2 [MLWH 22] | 12.5 | 100 | 100 | 50 | 200 | 200 |  |
| VHKAFRKGSGAAILW-NH2 [MLWH 27] | 200 |  |  | 200 |  |  |  |
| VIYSIGLRIFNKIRP [MLWH99, peptide generated using algorithm, list 2] |  |  |  |  |  |  | MIC, Table S7, 4th value printed in the line (strain column cannot be told) [7]: 200 µM |
| VQKLLKFKLKITAKA-NH2 [MLWH08] | 100 | 100 |  | 50 | 200 | 50 |  |
| WFKAIAIGLGKFIAK-NH2 [MLWH 14] | 25 | 25 | 25 | 25 |  | 25 |  |
| YFHLKKSFGKKLKRV-NH2 [MLWH 41] | 100 |  |  |  |  |  |  |
